# What was measured:
# progesterone receptor [1] = target: T1, progesterone receptor (Homo sapiens, UniProt P06401); assay: T47D alkaline phosphatase assay for progesterone receptor modulator (antagonist) activity; assay type: cell-based; set-up: Frozen T47D cells are thawed in a 37° C. water bath and diluted to 280,000 cells/mL in culture medium; endogenous in cells; host or cells: T47D cells; settings: T47D cells, antagonist mode in the presence of 1 nM progesterone, 24 hours
# T1 sequence (P06401 1-933): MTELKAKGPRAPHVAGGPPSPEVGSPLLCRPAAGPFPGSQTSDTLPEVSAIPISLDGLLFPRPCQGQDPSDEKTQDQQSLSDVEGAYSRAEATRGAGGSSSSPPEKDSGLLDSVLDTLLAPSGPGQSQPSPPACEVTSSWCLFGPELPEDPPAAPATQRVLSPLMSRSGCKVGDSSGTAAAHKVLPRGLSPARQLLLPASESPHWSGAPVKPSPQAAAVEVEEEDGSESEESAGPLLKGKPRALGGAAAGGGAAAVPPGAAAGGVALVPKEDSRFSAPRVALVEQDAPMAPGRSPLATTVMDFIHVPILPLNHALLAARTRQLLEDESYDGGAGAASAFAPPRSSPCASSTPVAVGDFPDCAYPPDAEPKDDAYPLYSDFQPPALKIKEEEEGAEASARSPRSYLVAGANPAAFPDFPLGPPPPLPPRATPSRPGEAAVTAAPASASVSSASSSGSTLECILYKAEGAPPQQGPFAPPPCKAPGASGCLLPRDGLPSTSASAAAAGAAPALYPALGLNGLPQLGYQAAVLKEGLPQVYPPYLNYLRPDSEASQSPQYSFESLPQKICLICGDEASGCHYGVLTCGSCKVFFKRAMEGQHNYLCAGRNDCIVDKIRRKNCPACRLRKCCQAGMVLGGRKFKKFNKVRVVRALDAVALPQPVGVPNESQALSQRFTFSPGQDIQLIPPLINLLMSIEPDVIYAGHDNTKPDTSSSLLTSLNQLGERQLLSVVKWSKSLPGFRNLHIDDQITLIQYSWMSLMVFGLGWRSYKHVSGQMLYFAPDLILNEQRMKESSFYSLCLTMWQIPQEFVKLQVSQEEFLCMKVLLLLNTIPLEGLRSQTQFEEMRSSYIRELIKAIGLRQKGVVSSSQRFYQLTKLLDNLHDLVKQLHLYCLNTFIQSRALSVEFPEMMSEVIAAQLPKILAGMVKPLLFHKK
# Description: (§1) An assay was performed to identify compounds having progesterone receptor modulator activity. This assay identifies progestins or antiprogestins by determining a compound's effect on alkaline phosphatase activity in T47D cells.
# (§2) Culture medium: DMEM:F12 (1:1) (GIBCO, BRL) supplemented with 5% (v/v) charcoal stripped fetal bovine serum (not heat-inactivated), 100 U/mL penicillin, 100 μg/mL streptomycin, and 2 mM the GlutaMax® reagent (GIBCO, BRL).
# (§3) Alkaline phosphatase assay buffer: • I. 0.1M Tris-HCl, pH 9.8, containing 0.2% the Triton™ X-100 reagent • II. 0.1M Tris-HCl, pH 9.8, containing 4 mM p-nitrophenyl phosphate (Sigma).
# (§4) Frozen T47D cells are thawed in a 37° C. water bath and diluted to 280,000 cells/mL in culture medium. To each well in a 96-well plate (Falcon, Becton Dickinson Labware), 180 μL of diluted cell suspension is added.
# Twenty μL of reference or test compounds diluted in the culture medium is then added to each well. When testing for progestin antagonist activity, reference antiprogestins or test compounds are added in the presence of 1 nM progesterone. […]
# Analysis of dose-response data. […] EC50 or IC50 values are calculated from the retransformed values. […]
# Progesterone and trimegestone are reference progestins and RU486 is the reference antiprogestin. All reference compounds are run in full dose response curves and the EC50 and IC50 values are calculated. […]
# progesterone receptor [2] = target: T1, progesterone receptor; assay: as above; assay type: cell-based; set-up: endogenous in cells; host or cells: T47D cells; settings: T47D cells; for IC50: antagonist mode in the presence of 1 nM progesterone, 24 hours
# Description: as §1, §2, §3, §4
# Twenty μL of reference or test compounds diluted in the culture medium is then added to each well. When testing for progestin antagonist activity, reference antiprogestins or test compounds are added in the presence of 1 nM progesterone. The cells are incubated at 37° C. in a 5% CO2/humidified atmosphere for 24 hours.
# For high throughput screening, one concentration of each compound will be tested at 0.3 μg/mL. Based on an average molecular weight of 300 g/mol for the compounds in the library, the concentration is approximately 1 μM. Subsequently, active compounds will be tested in dose response assays to determine EC50 and IC50.
# At the end of treatment, the medium is removed from the plate. Fifty μL of assay buffer I is added to each well. The plates are shaken in a titer plate shaker for 15 minutes. Then 150 μL of assay buffer II is added to each well. Optical density measurements are taken at 5 minute intervals for 30 minutes at a test wavelength of 405 nm.
# Analysis of dose-response data. For reference and test compounds, a dose response curve is generated for dose (x-axis) vs. the rate of enzyme reaction (slope) (y-axis). Square root-transformed data are used for analysis of variance and nonlinear dose response curve fitting for both agonist and antagonist modes. Huber weighting is used to down-weight the effects of outliers. EC50 or IC50 values are calculated from the retransformed values. The JMP® software (SAS Institute, Inc.) is used for both one-way analysis of variance and non-linear dose response analysis in both single dose and dose response studies.
# Progesterone and trimegestone are reference progestins and RU486 is the reference antiprogestin. All reference compounds are run in full dose response curves and the EC50 and IC50 values are calculated.
# In the table provided above, the IC50 values show the relative progesterone receptor antagonist activity in this assay. Lower numbers are indicative of higher potency, i.e., greater PR antagonist activity. Further, the assay has a standard deviation of about ±6.
SMILES,IC50 (progesterone receptor [2]),also measured
CN(C#N)c1ccc(-c2ccc(C#N)n2C)cc1 [Example 38],,IC50 (progesterone receptor [1]): 0.0882 µM
"CCS(=O)(=O)Nc1ccc(-c2ccc(C#N)n2CCCc2ccccc2)cc1 [Example 71, N-{4-[5-cyano-1-(3-phenylpropyl)-1H-pyrrol-2-yl]phenyl}ethanesulfonamide]",,Active Dose (progesterone receptor [2]): 3 µM; inhibition at 3 µM (progesterone receptor [2]; at Active Dose 3000 nM): 15%
"CCCCS(=O)(=O)Nc1ccc(-c2ccc(C#N)n2C)cc1 [Example 18, N-[4-(5-cyano-1-methyl-1H-pyrrol-2-yl)phenyl]butane-1-sulfonamide]",~0.3 µM,
"Cc1ccc(S(=O)(=O)Nc2ccc(-c3ccc(C#N)n3C)cc2)cc1 [Example 22, N-[4-(5-cyano-1-methyl-1H-pyrrol-2-yl)phenyl]-4-methylbenzenesulfonamide]",~3 µM,
"Cn1c(C#N)ccc1-c1ccc(N2CCCS2(=O)=O)cc1 [Example 57, 5-[4-(1,1-dioxidoisothiazolidin-2-yl)phenyl]-1-methyl-1H-pyrrole-2-carbonitrile]",0.18 µM,
"CCc1cc(-c2ccc(C#N)n2C)ccc1NC#N [Example 30, [4-(5-cyano-1-methyl-1H-pyrrol-2-yl)-2-ethylphenyl]cyanamide]",~0.3 µM,
"Cn1c(C#N)ccc1-c1ccc(NC(=O)C2CCC2)cc1 [Example 10, N-[4-(5-cyano-1-methyl-1H-pyrrol-2-yl)phenyl]cyclobutane-carboxamide]",0.0839 µM,
"CCCn1c(C#N)ccc1-c1ccc(NS(=O)(=O)CC)cc1 [Example 67, N-[4-(5-cyano-1-propyl-1H-pyrrol-2-yl)phenyl]ethanesulfonamide]",0.721 µM,

# Continued, in another order:
IC50 (progesterone receptor [2]),SMILES,also measured
0.0358 µM,"CCS(=O)(=O)Nc1ccc(-c2ccc(C#N)n2C)cc1OC(F)(F)F [Example 60, N-[4-(5-cyano-1-methyl-1H-pyrrol-2-yl)-2-(trifluoromethoxy)phenyl]ethane-sulfonamide]",
0.0584 µM,"Cn1c(C#N)ccc1-c1ccc(NS(=O)(=O)CC(F)(F)F)cc1 [Example 19, N-[4-(5-cyano-1-methyl-1H-pyrrol-2-yl)phenyl]-2,2,2-trifluoroethanesulfonamide]",
0.0541 µM,"Cn1c(C#N)ccc1-c1ccc(NC#N)cc1 [Example 28, [4-(5-cyano-1-methyl-1H-pyrrol-2-yl)-phenyl]cyanamide]",
0.01 µM,"CCS(=O)(=O)Nc1ccc(-c2ccc(C#N)n2C)cc1 [Example 24, N-[4-(5-cyano-1-methyl-1H-pyrrol-2-yl)phenyl]ethanesulfonamide]",
0.0289 µM,"Cn1c(C#N)ccc1-c1ccc(NS(C)(=O)=O)c(F)c1 [Example 26, N-[4-(5-cyano-1-methyl-1H-pyrrol-2-yl)-2-fluorophenyl]methane-sulfonamide]",
0.0183 µM,"Cn1c(C#N)ccc1-c1ccc(NS(C)(=O)=O)cc1F [Example 40, N-[4-(5-cyano-1-methyl-1H-pyrrol-2-yl)-3-fluorophenyl]methanesulfonamide]",Active Dose (progesterone receptor [2]): 10 µM
0.0086 µM,"CCCCS(=O)(=O)Nc1cc(F)c(-c2ccc(C#N)n2C)c(F)c1 [Example 82, N-[4-(5-cyano-1-methyl-1H-pyrrol-2-yl)-3,5-difluorophenyl]butane-1-sulfonamide]",
0.0537 µM,"CCCCS(=O)(=O)Nc1ccc(-c2ccc(C#N)n2C)c(C(F)(F)F)c1 [Example 55, N-[4-(5-cyano-1-methyl-1H-pyrrol-2-yl)-3-(trifluoromethyl)phenyl]butane-1-sulfonamide]",
0.0221 µM,"CCS(=O)(=O)Nc1cc(F)c(-c2ccc(C#N)n2C)cc1F [Example 47, N-[4-(5-cyano-1-methyl-1H-pyrrol-2-yl)-2,5-difluorophenyl]ethane-sulfonamide]",

# Reference: patent publication US20070027201A1 (Wyeth, priority 2005, published 2007)
